This note sets out measurements from patent US6410733B1, “Amidine inhibitors of serine proteases” (Genentech, Inc., priority 2000, dated 2002).

Structures are written as SMILES.

What is called Ki is the dissociation constant of the complex between target and ligand, obtained from inhibition or displacement.

The assay concerns the target human Factor Xa (Homo sapiens, UniProt P00742). Briefly: Factor Xa assay. Format: biochemical. The arrangement: This complex converts factor X to Xa; purchased Hematologic Technologies. The following applies: 3.3 nM Xa, S-2222 0.5 mM; read-out: binding affinity to serine proteases: Xa (constant of inhibition Ki). Here is the method: These procedures are used to determine the constant of inhibition (Ki) for a sample compound of the invention.
Coagulation Factor: human Factor Xa, Thrombin, or Plasma Kallikrein (Hematologic Technologies) Dilute to 0.45 μg/mL (9.8 nM) in assay buffer.
Substrate: S-2222, S2366 or S2302—(See below—Chromogenix Inc,) Reconstitute at 5 mM in H2O. Dilute to 1.5 mM in assay buffer prior to use.
Samples: Dilute samples to 3% DMSO in assay buffer.
1. Add 50 μL sample to each well.
2. Add 50 μL appropriately diluted coagulation factor to each well.
3. Incubate for 5 minutes at room temperature with gentle agitation.
4. Add 50 μL appropriately diluted substrate to each well.
5. Agitate plate for 20-25 sec.
6. Monitor absorbance at 405 nm every 10 sec for a total of 5 minutes at room temperature.
7. Calculate Vmax over 10 points.

Chain of human Factor Xa (P00742 235-488 limits assumed): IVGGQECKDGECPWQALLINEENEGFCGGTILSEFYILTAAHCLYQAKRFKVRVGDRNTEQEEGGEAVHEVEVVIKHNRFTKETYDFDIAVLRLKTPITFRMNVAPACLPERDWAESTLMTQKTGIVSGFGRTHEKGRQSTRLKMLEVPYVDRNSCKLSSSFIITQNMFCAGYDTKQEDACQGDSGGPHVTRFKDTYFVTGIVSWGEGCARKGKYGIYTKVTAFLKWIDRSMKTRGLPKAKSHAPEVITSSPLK
Chain of human Factor Xa (P00742 41-179 limits assumed): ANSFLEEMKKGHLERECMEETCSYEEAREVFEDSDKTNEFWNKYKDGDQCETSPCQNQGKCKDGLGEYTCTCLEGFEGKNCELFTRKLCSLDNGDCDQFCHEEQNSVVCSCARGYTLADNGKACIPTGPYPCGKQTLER

As for `C[C@@H](NC(=O)[C@@H]1C[C@@H](Oc2cccc(C(=N)N)c2)CN1)c1ccccc1` [compound 26], the Ki amounted to 114 µM.
